Assay results reported in patent US7682635B2, “Aqueous dispersions of nanometric or micrometric particles for encapsulating chemical compounds” (Centre National de la Recherche Scientifique (C.N.R.S.), priority 2002, dated 2010).

Assay: Encapsulation of benzophenone in particles (ultracentrifugation, spectrophotometry of supernatant at 261 nm)
Assay type: physicochemical
Protocol: An aqueous solution of polymer P2 as defined in Example 1 (0.44 g/l) was produced, to which benzophenone was added with a molar ratio of benzophenone added: cyclodextrin equal to 1:1. This solution was left under agitation for 24 hours.
A composition of particles was prepared by mixture of 1 ml of the solution thus obtained with 1 ml of a solution of modified dextran DM3 as defined in Example 1 (0.44 g/l).
After mixture, the particles produced were ultracentrifuged (30 minutes at 40000 r.p.m. in a Beckman L7-55 centrifuge). The non-encapsulated benzophenone present in the supernatant was dosaged by spectrophotometry (absorption line at 261 nm).
The experiment was repeated using a molar ratio of benzophenone added: cyclodextrin equal to 1:3 for the solution of polymer P2.
The experiment was also repeated using modified dextran DM4 instead of DM3.
Finally, the experiment was also repeated using a molar ratio of benzophenone added cyclodextrin equal to 1:3 for the solution of polymer P2 and also replacing the modified dextran DM3 by DM4.

O=C(c1ccccc1)c1ccccc1 [benzophenone]
benzophenone initially introduced found in the supernatant (4 cases: P2 with DM3 or DM4, benzophenone:cyclodextrin 1:1 or 1:3, after ultracentrifugation): less than 70%
benzophenone content of particles (molar ratio benzophenone:cyclodextrin 1:1 in the initial solution of P2): 1 % by mass
benzophenone content of particles (molar ratio benzophenone:cyclodextrin 1:3): 3 % by mass
